We go through 32 compounds from patent US20230019236A1, “PROTEIN TYROSINE PHOSPHATASE INHIBITORS AND METHODS OF USE THEREOF” (Calico Life Sciences LLC, priority 2019, published 2023).

SMILES strings stand for the structures.

The target of this assay is T1, His tagged full-length PTP1B protein (Homo sapiens, UniProt P18031).
T1 construct: made in house
T1 sequence (P18031 with tags, fused parts or gaps): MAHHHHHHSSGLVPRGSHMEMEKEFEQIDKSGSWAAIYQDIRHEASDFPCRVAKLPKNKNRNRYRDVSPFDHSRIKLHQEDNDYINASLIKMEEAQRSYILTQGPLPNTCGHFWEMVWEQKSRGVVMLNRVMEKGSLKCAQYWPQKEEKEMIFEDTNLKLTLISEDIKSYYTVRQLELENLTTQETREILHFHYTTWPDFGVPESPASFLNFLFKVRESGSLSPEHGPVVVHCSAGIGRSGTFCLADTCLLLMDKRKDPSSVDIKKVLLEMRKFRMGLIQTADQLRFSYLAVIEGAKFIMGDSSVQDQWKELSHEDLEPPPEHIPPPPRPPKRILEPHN
Description: Mobility Shift Assay (MSA) used to determine potency of PTP1B inhibitors. The format is biochemical. The conditions noted are these: Table 2. As for the experimental part: The enzymatic assay used to determine activity is a mobility shift assay using a LabChip EZ Reader by Caliper Life Sciences. The enzymatic reaction was carried out in assay buffer (50 mM HEPES pH 7.5, 1 mM EGTA, 10 mM EDTA, 0.01% Tween® 20, and 2 mM DTT). […] The enzyme (at 0.5 nM) was incubated with compound for 10 minutes at room temperature. […] The % inhibition was then used to calculate the IC50 values.
As for `O=C1CN(c2c(O)cc3ccc(OCCN4CCOCC4)cc3c2F)S(=O)(=O)N1` [Compound 100, 5-{1-fluoro-3-hydroxy-7-[2-(morpholin-4-yl)ethoxy]naphthalen-2-yl}-1λ^6,2,5-thiadiazolidine-1,1,3-trione], the IC50 (commonly the concentration needed to halve the response being measured) fell in the range of 10 to 100 nM. For `O=C1CN(c2c(O)cc3ccc4occc4c3c2F)S(=O)(=O)N1` [Compound 104, 5-(9-fluoro-7-hydroxynaphtho[2,1-b]furan-8-yl)-1λ^6,2,5-thiadiazolidine-1,1,3-trione], the IC50 lay within 10 to 100 nM.

Take `O=C1CN(c2c(O)cc3ccc(OCCN4CCC4)cc3c2F)S(=O)(=O)N1` [Compound 105, 5-{7-[2-(azetidin-1-yl)ethoxy]-1-fluoro-3-hydroxynaphthalen-2-yl}-1λ^6,2,5-thiadiazolidine-1,1,3-trione]: the IC50 lay within 1 to 10 nM. As to `[2H]c1c(O)c(N2C([2H])([2H])C(=O)NS2(=O)=O)c(F)c2cc(OC)ccc12` [Compound 106, 5-[1-fluoro-3-hydroxy-7-methoxy(4-^2H)naphthalen-2-yl](4,4-2H2)-1λ^6,2,5-thiadiazolidine-1,1,3-trione], the IC50 is 1 to 10 nM.

For `CNc1ccc2cc(O)c(N3CC(=O)NS3(=O)=O)c(F)c2c1` [Compound 107, 5-[1-fluoro-3-hydroxy-7-(methylamino)naphthalen-2-yl]-1λ^6,2,5-thiadiazolidine-1,1,3-trione], the IC50 is > 100 nM.

For `N#CCCCCOc1ccc2cc(O)c(N3CC(=O)NS3(=O)=O)c(F)c2c1` [Compound 111, 5-{[8-fluoro-6-hydroxy-7-(1,1,4-trioxo-1λ^6,2,5-thiadiazolidin-2-yl)naphthalen-2-yl]oxy}pentanenitrile], the IC50 lay in the range of 1 to 10 nM. With `O=C1CN(c2c(O)cc3ccc(OCCN4CCCCC4)cc3c2F)S(=O)(=O)N1` [Compound 112, 5-{1-fluoro-3-hydroxy-7-[2-(piperidin-1-yl)ethoxy]naphthalen-2-yl}-1λ^6,2,5-thiadiazolidine-1,1,3-trione], the IC50 fell in the range of 10 to 100 nM. `O=C1CN(c2c(O)cc3ccc(OCC4CCNCC4)cc3c2F)S(=O)(=O)N1` [Compound 114, 5-{1-fluoro-3-hydroxy-7-[(piperidin-4-yl)methoxy]naphthalen-2-yl}-1λ^6,2,5-thiadiazolidine-1,1,3-trione]: the IC50 was 1 to 10 nM. Regarding `CC(C)(CC#N)CCOc1ccc2cc(O)c(N3CC(=O)NS3(=O)=O)c(F)c2c1` [Compound 115, 5-{[8-fluoro-6-hydroxy-7-(1,1,4-trioxo-1λ^6,2,5-thiadiazolidin-2-yl)naphthalen-2-yl]oxy}-3,3-dimethylpentanenitrile], the IC50 was in the range of 1 to 10 nM. For the compound `CC(C)(C)CCNc1ccc2cc(O)c(N3CC(=O)NS3(=O)=O)c(F)c2c1` [Compound 116, 5-{7-[(3,3-dimethylbutyl)amino]-1-fluoro-3-hydroxynaphthalen-2-yl}-1λ^6,2,5-thiadiazolidine-1,1,3-trione], the IC50 was 10 to 100 nM.

As to `COc1ccc2c(F)c(O)c(N3CC(=O)NS3(=O)=O)c(F)c2c1` [Compound 117, 5-(1,4-difluoro-3-hydroxy-7-methoxynaphthalen-2-yl)-1λ^6,2,5-thiadiazolidine-1,1,3-trione], the IC50 was in the range of 1 to 10 nM. Consider `[2H]C([2H])([2H])Oc1ccc2cc(O)c(N3CC(=O)NS3(=O)=O)c(F)c2c1` [Compound 118, 5-{1-fluoro-3-hydroxy-7-[(2H3)methyloxy]naphthalen-2-yl}-1λ^6,2,5-thiadiazolidine-1,1,3-trione], for which the IC50 lay within 1 to 10 nM. Regarding `COCCOc1ccc2cc(O)c(N3CC(=O)NS3(=O)=O)c(F)c2c1` [Compound 119, 5-[1-fluoro-3-hydroxy-7-(2-methoxyethoxy)naphthalen-2-yl]-1λ^6,2,5-thiadiazolidine-1,1,3-trione], the IC50 lay in the range of 1 to 10 nM. In the case of `CC(C)(C#N)CCOc1ccc2cc(O)c(N3CC(=O)NS3(=O)=O)c(F)c2c1` [Compound 120, 4-{[8-fluoro-6-hydroxy-7-(1,1,4-trioxo-1λ^6,2,5-thiadiazolidin-2-yl)naphthalen-2-yl]oxy}-2,2-dimethylbutanenitrile], the IC50 was < 1 nM. For `[2H]C1([2H])C(=O)NS(=O)(=O)N1c1c(O)cc2ccc(OC)cc2c1F` [Compound 123, 5-(1-fluoro-3-hydroxy-7-methoxynaphthalen-2-yl)(4,4-^2H2)-1λ^6,2,5-thiadiazolidine-1,1,3-trione], the 50% inhibitory concentration (IC50) was in the range of 1 to 10 nM. With `O=C1CN(c2c(O)cc3ccc(NCCNS(=O)(=O)C4CC4)cc3c2F)S(=O)(=O)N1` [Compound 125, N-(2-{[8-fluoro-6-hydroxy-7-(1,1,4-trioxo-1λ^6,2,5-thiadiazolidin-2-yl)naphthalen-2-yl]amino}ethyl)cyclopropanesulfonamide], the half-maximal inhibitory concentration (IC50) lay in the range of 10 to 100 nM.

For `CS(=O)(=O)N1CC(Nc2ccc3cc(O)c(N4CC(=O)NS4(=O)=O)c(F)c3c2)C1` [Compound 128, 5-(1-fluoro-3-hydroxy-7-{[1-(methanesulfonyl)azetidin-3-yl]amino}naphthalen-2-yl)-1λ^6,2,5-thiadiazolidine-1,1,3-trione], the IC50 fell in the range of 1 to 10 nM. For the compound `N#CCCCOc1ccc2cc(O)c(N3CC(=O)NS3(=O)=O)c(F)c2c1` [Compound 129, 4-{[8-fluoro-6-hydroxy-7-(1,1,4-trioxo-1λ^6,2,5-thiadiazolidin-2-yl)naphthalen-2-yl]oxy}butanenitrile], the IC50 was < 1 nM. Consider `O=C1CN(c2c(O)cc3ccc(-c4cnn(CC5CC5)c4)cc3c2F)S(=O)(=O)N1` [Compound 132, 5-{7-[1-(cyclopropylmethyl)-1H-pyrazol-4-yl]-1-fluoro-3-hydroxynaphthalen-2-yl}-1λ^6,2,5-thiadiazolidine-1,1,3-trione], for which the IC50 is < 1 nM.

Regarding `O=C1CN(c2c(O)cc3ccc(OCc4cn[nH]c4)cc3c2F)S(=O)(=O)N1` [Compound 133, 5-{1-fluoro-3-hydroxy-7-[(1H-pyrazol-4-yl)methoxy]naphthalen-2-yl}-1λ6,2,5-thiadiazolidine-1,1,3-trione], the IC50 fell in the range of 1 to 10 nM. As for `O=C1CN(c2c(O)cc3ccc(C(=O)NCC4CC4)cc3c2F)S(=O)(=O)N1` [Compound 136, N-(cyclopropylmethyl)-8-fluoro-6-hydroxy-7-(1,1,4-trioxo-1λ^6,2,5-thiadiazolidin-2-yl)naphthalene-2-carboxamide], the figure is 10 to 100 nM; as for `O=C1CN(c2c(O)cc3ccc(OCCNCCOC(F)(F)F)cc3c2F)S(=O)(=O)N1` [Compound 137, 5-[1-fluoro-3-hydroxy-7-(2-{[2-(trifluoromethoxy)ethyl]amino}ethoxy)naphthalen-2-yl]-1λ^6,2,5-thiadiazolidine-1,1,3-trione], 1 to 10 nM.

On to `COCCNCCOc1ccc2cc(O)c(N3CC(=O)NS3(=O)=O)c(F)c2c1` [Compound 138, 5-(1-fluoro-3-hydroxy-7-{2-[(2-methoxyethyl)amino]ethoxy}naphthalen-2-yl)-1λ^6,2,5-thiadiazolidine-1,1,3-trione], for which the IC50 lay in the range of 10 to 100 nM. As for `CNCCCc1ccc2cc(O)c(N3CC(=O)NS3(=O)=O)c(F)c2c1` [Compound 139, 5-{1-fluoro-3-hydroxy-7-[3-(methylamino)propyl]naphthalen-2-yl}-1λ^6,2,5-thiadiazolidine-1,1,3-trione], the IC50 was 10 to 100 nM.

Consider `CCNCCCc1ccc2cc(O)c(N3CC(=O)NS3(=O)=O)c(F)c2c1` [Compound 140, 5-{7-[3-(ethylamino)propyl]-1-fluoro-3-hydroxynaphthalen-2-yl}-1λ^6,2,5-thiadiazolidine-1,1,3-trione], for which the IC50 was 10 to 100 nM. The same measure for `CP(C)(=O)c1ccc(-c2ccc3cc(O)c(N4CC(=O)NS4(=O)=O)c(F)c3c2)s1` [Compound 141, 5-{7-[5-(dimethylphosphoryl)thiophen-2-yl]-1-fluoro-3-hydroxynaphthalen-2-yl}-1λ^6,2,5-thiadiazolidine-1,1,3-trione]: 1 to 10 nM; for `O=C1CN(c2c(O)cc3ccc(OCCNC4CC4)cc3c2F)S(=O)(=O)N1` [Compound 142, 5-{7-[2-(cyclopropylamino)ethoxy]-1-fluoro-3-hydroxynaphthalen-2-yl}-1λ^6,2,5-thiadiazolidine-1,1,3-trione]: 10 to 100 nM. As to `CNCCOc1ccc2cc(O)c(N3CC(=O)NS3(=O)=O)c(F)c2c1` [Compound 143, 5-{1-fluoro-3-hydroxy-7-[2-(methylamino)ethoxy]naphthalen-2-yl}-1λ^6,2,5-thiadiazolidine-1,1,3-trione], the half-inhibitory concentration (IC50) was 10 to 100 nM.

For the compound `CCNCCOc1ccc2cc(O)c(N3CC(=O)NS3(=O)=O)c(F)c2c1` [Compound 144, 5-{7-[2-(ethylamino)ethoxy]-1-fluoro-3-hydroxynaphthalen-2-yl}-1λ^6,2,5-thiadiazolidine-1,1,3-trione], the IC50 was 10 to 100 nM. On to `CC(C)NCCOc1ccc2cc(O)c(N3CC(=O)NS3(=O)=O)c(F)c2c1` [Compound 145, 5-(1-fluoro-3-hydroxy-7-{2-[(propan-2-yl)amino]ethoxy}naphthalen-2-yl)-1λ^6,2,5-thiadiazolidine-1,1,3-trione], for which the concentration for half-maximal inhibition (IC50) fell in the range of 10 to 100 nM.

In the case of `CCP(=O)(CC)CCCOc1ccc2cc(O)c(N3CC(=O)NS3(=O)=O)c(F)c2c1` [Compound 146, 5-{7-[3-(diethylphosphoryl)propoxy]-1-fluoro-3-hydroxynaphthalen-2-yl}-1λ^6,2,5-thiadiazolidine-1,1,3-trione], the IC50 is 1 to 10 nM.

On to `C[C@H](O)CCOc1ccc2cc(O)c(N3CC(=O)NS3(=O)=O)c(F)c2c1` [Compound 147, 5-{1-fluoro-3-hydroxy-7-[(3S)-3-hydroxybutoxy]naphthalen-2-yl}-1λ^6,2,5-thiadiazolidine-1,1,3-trione], for which the IC50 is 1 to 10 nM.
